Test system: patients after acute myocardial infarction
Experiment: TCM symptom score, total and single (chest pain, chest tightness, short breath, fatigue, palpitation, spontaneous perspiration, pale complexion), same clinical trial
Format: in vivo, human
Details: for chest pain score 0, number of patients / chest pain score 0, percent of patients / chest pain score 3, number of patients / chest pain score 3, percent of patients / chest pain score 6, number of patients / chest pain score 6, percent of patients / chest pain score 9, number of patients / chest pain score 9, percent of patients / chest tightness score 0, number of patients / chest tightness score 0, percent of patients / chest tightness score 3, number of patients / chest tightness score 3, percent of patients / chest tightness score 6, number of patients / chest tightness score 6, percent of patients / chest tightness score 9, number of patients / chest tightness score 9, percent of patients: 12 months after treatment
Excerpt: 3508 patients who were in accordance with the diagnostic standards of AMI for 28 days to 2 years and differentiated as Qi deficiency and blood stagnation syndrome by TCM were studied. 0.5 g Chinese medicine composition prepared by the method of EXAMPLE 1 (Coded as QSYQ) was administrated half an hour after meal, 3 times per day.
They included the overall survival time, angina pectoris score, TCM symptom score and life quality score, where angina pectoris score, TCM symptom score and life quality score were evaluated at randomization, in 1st, 3rd, 6th, 9th, 12th month after treatment and 18th month after follow-up.
The analysis method referred to the angina pectoris score.

[1] = 12 months after treatment-baseline, FAS
[2] = 12 months after treatment-baseline, PP
[3] = FAS, 12 months after treatment-treatment

## CC(=O)Oc1ccccc1C(=O)O [Control group, aspirine]
[1]
  change of chest tightness score 9, number of patients: 5
  change of chest tightness score 9, percent of patients: (0.29%)
  change of chest tightness score −3, number of patients: 83
  change of chest tightness score −3, percent of patients: (4.86%)
  change of chest tightness score −6, number of patients: 3
  change of chest tightness score −6, percent of patients: (0.18%)
  change of chest tightness score −9, number of patients: 0
  change of chest tightness score −9, percent of patients: (0.00%)
[2]
  change of chest pain score 0, number of patients: 760
  change of chest pain score 0, percent of patients: (54.36%)
  change of chest pain score 3, number of patients: 455
  change of chest pain score 3, percent of patients: (32.55%)
  change of chest pain score 6, number of patients: 131
  change of chest pain score 6, percent of patients: (9.37%)
  change of chest pain score 9, number of patients: 5
  change of chest pain score 9, percent of patients: (0.36%)
  change of chest pain score −3, number of patients: 45
  change of chest pain score −3, percent of patients: (3.22%)
  change of chest pain score −6, number of patients: 2
  change of chest pain score −6, percent of patients: (0.14%)
  change of chest tightness score 0, number of patients: 721
  change of chest tightness score 0, percent of patients: (51.54%)
  change of chest tightness score 3, number of patients: 539
  change of chest tightness score 3, percent of patients: (38.53%)
  change of chest tightness score 6, number of patients: 79
  change of chest tightness score 6, percent of patients: (5.65%)
  change of chest tightness score 9, number of patients: 4
  change of chest tightness score 9, percent of patients: (0.29%)
  change of chest tightness score −3, number of patients: 54
  change of chest tightness score −3, percent of patients: (3.86%)
  change of chest tightness score −6, number of patients: 2
  change of chest tightness score −6, percent of patients: (0.14%)
  change of chest tightness score −9, number of patients: 0
  change of chest tightness score −9, percent of patients: (0.00%)
FAS
  chest pain score 0, number of patients: 858
  chest pain score 0, percent of patients: (49.94%)
  chest pain score 3, number of patients: 607
  chest pain score 3, percent of patients: (35.33%)
  chest pain score 6, number of patients: 248
  chest pain score 6, percent of patients: (14.44%)
  chest pain score 9, number of patients: 5
  chest pain score 9, percent of patients: (0.29%)
  chest tightness score 0, number of patients: 858
  chest tightness score 0, percent of patients: (49.94%)
  chest tightness score 3, number of patients: 607
  chest tightness score 3, percent of patients: (35.33%)
  chest tightness score 6, number of patients: 248
  chest tightness score 6, percent of patients: (14.44%)
  chest tightness score 9, number of patients: 5
  chest tightness score 9, percent of patients: (0.29%)
PP
  chest pain score 0, number of patients: 725
  chest pain score 0, percent of patients: (51.67%)
  chest pain score 3, number of patients: 501
  chest pain score 3, percent of patients: (35.71%)
  chest pain score 6, number of patients: 176
  chest pain score 6, percent of patients: (12.54%)
  chest pain score 9, number of patients: 1
  chest pain score 9, percent of patients: (0.07%)
  chest tightness score 0, number of patients: 725
  chest tightness score 0, percent of patients: (51.67%)
  chest tightness score 3, number of patients: 501
  chest tightness score 3, percent of patients: (35.71%)
  chest tightness score 6, number of patients: 176
  chest tightness score 6, percent of patients: (12.54%)
  chest tightness score 9, number of patients: 1
  chest tightness score 9, percent of patients: (0.07%)
[3]
  change of short breath 0, % of patients: (55.85%)
  change of short breath 2, % of patients: (32.92%)
  change of short breath 2, number of patients: 563
  change of short breath 4, % of patients: (4.09%)
  change of short breath 4, number of patients: 70
  change of short breath 6, % of patients: (0.70%)
  change of short breath 6, number of patients: 12
  change of short breath −2, % of patients: (6.32%)
  change of short breath −2, number of patients: 108
  change of short breath −4, % of patients: (0.12%)
  change of short breath −4, number of patients: 2
FAS, 1 month after treatment
  distribution of total score of TCM symptom: Medium, number of patients: 675
  distribution of total score of TCM symptom: Medium, percentage of patients: (40.11%)
  distribution of total score of TCM symptom: Mild, number of patients: 989
  distribution of total score of TCM symptom: Mild, percentage of patients: (58.76%)
  distribution of total score of TCM symptom: Severe, number of patients: 19
  distribution of total score of TCM symptom: Severe, percentage of patients: (1.13%)
  fatigue score 0, % of patients: (24.05%)
  fatigue score 0, number of patients: 413
  fatigue score 2, % of patients: (60.75%)
  fatigue score 2, number of patients: 1043
  fatigue score 4, % of patients: (13.86%)
  fatigue score 4, number of patients: 238
  fatigue score 6, % of patients: (1.34%)
  fatigue score 6, number of patients: 23
  pale complexion score 0, number of patients: 713
  pale complexion score 0, percent of patients: (41.53%)
  pale complexion score 1, number of patients: 726
  pale complexion score 1, percent of patients: (42.28%)
  pale complexion score 2, number of patients: 245
  pale complexion score 2, percent of patients: (14.27%)
  pale complexion score 3, number of patients: 33
  pale complexion score 3, percent of patients: (1.92%)
  palpitation score 0, number of patients: 427
  palpitation score 0, percent of patients: (24.87%)
  palpitation score 1, number of patients: 1
  palpitation score 1, percent of patients: (0.06%)
  palpitation score 2, number of patients: 834
  palpitation score 2, percent of patients: (48.57%)
  palpitation score 4, number of patients: 398
  palpitation score 4, percent of patients: (23.18%)
  palpitation score 6, number of patients: 57
  palpitation score 6, percent of patients: (3.32%)
  short breath score 0, % of patients: (21.14%)
  short breath score 0, number of patients: 363
  short breath score 3, % of patients: (54.22%)
  short breath score 3, number of patients: 931
  short breath score 6, % of patients: (23.88%)
  short breath score 6, number of patients: 410
  short breath score 9, % of patients: (0.76%)
  short breath score 9, number of patients: 13
  spontaneous perspiration score 0, number of patients: 603
  spontaneous perspiration score 0, percent of patients: (35.12%)
  spontaneous perspiration score 1, number of patients: 879
  spontaneous perspiration score 1, percent of patients: (51.19%)
  spontaneous perspiration score 2, number of patients: 215
  spontaneous perspiration score 2, percent of patients: (12.52%)
  spontaneous perspiration score 3, number of patients: 20
